Here are results for 64 compounds from a melting point compilation (Tetko et al.; mined from patent text by program, amines drawn as free bases though some values may be those of a salt).

Consider `CC(C)(Cn1cncn1)C(O)(CCc1ccc2ccccc2c1)Cn1cncn1` (centres undefined), for which the melting point (in general, the temperature of the solid-liquid transition) fell in the range of 77 to 80 °C.

In turn, `Oc1ccc(C2(c3ccc(O)cc3)CCCCCC2)cc1` returned a melting point of 208 to 209 °C.

For `Cc1cc(Oc2ccc(NC(=O)N3CCc4ccccc4CC3)cn2)cc(C)c1Cl`, the melting point is 208 to 209 °C.

`CCOC(=O)C1(C(=O)Nc2ccc(Br)cc2C)CC1` registered a melting point of 89.5 to 90 °C.

Turning to `COc1ccc(CC(=O)c2ccc(OC)nc2)cc1`, the melting point lay within 101 to 102 °C.

Compound `O=C(OC1CCCCC1=O)c1ccc([N+](=O)[O-])cc1` (centres undefined) had a melting point of 124 to 125 °C.

Take `CC(C)(C)c1nc2c(Cl)ccc(-n3c(=O)cc(C(F)(F)F)n(N)c3=O)c2o1`: the melting point was in the range of 104 to 106 °C.

`CC1(C)CCC(C)(C)c2cc(NC(=O)c3ccc(C(=O)O)cn3)ccc21` returned a melting point of 206 to 207 °C.

`O=C(O)Cn1c(-c2ccc(Cl)c(Cl)c2)nc2cccnc21` returned a melting point of 248 to 249 °C.

`CC1Nc2ccccc2-c2c([N+](=O)[O-])cnn21` (centres undefined) came in with a melting point of 173 to 175 °C.

Take `COC(=O)C1=C(C)NC(C)=C(C(=O)OC)C1c1ccccc1-c1cccs1`: the melting point is 173 to 175 °C.

`COc1ccc(C(C)=O)cc1C=CC(=O)O`: the melting point turned out to be 203 °C.

On to `CCOC(=O)/C=C/c1ccc(-c2ccc(O)c(C34CC5CC(CC(C5)C3)C4)c2)c(Cl)c1`, for which the melting point lay within 216 to 218 °C.

Turning to `O=C1CCCC(=O)N1c1cc(Cl)cc(Cl)c1`, the melting point is 172 to 174 °C.

The compound `CCSC(=S)N1Cc2[nH]c3ccccc3c2CC1CO` (centres undefined) showed a melting point of 74 to 76 °C.

The compound `O=C(O)c1nc(Cl)cc([N+](=O)[O-])c1Cl` returned a melting point of 192 to 193 °C.

On to `CC(C)c1cccc(C(C)C)c1NC(=O)NS(=O)(=O)Cl`, for which the melting point lay within 130 to 134 °C.

For `CCCCc1ncc(CC(=O)N[C@@H](Cc2ccccc2)C(=O)O)n1Cc1ccccc1Cl`, the melting point was in the range of 168 to 170 °C.

For the compound `CCc1c(C(=O)c2cc(Cl)cc(Cl)c2)[nH]c(=O)[nH]c1=O`, the melting point was 242 to 243 °C.

As for `N#Cc1c(N2CCc3ccccc3CC2)nc2n(c1=O)CCCC2`, the melting point lay in the range of 136 to 140 °C.

`CCOC(=O)c1cnc(N)nc1O`: the melting point was determined as 280 °C.

Compound `Cn1cncc1S(=O)(=O)O` gave a melting point of 286 to 287 °C.

In the case of `CCCc1nc2c(N)nc3ccccc3c2n1CC(C)(C)CC(C)=O`, the melting point lay in the range of 178 to 180 °C.

In the case of `Cc1c(F)cc(C(=O)O)cc1F`, the melting point was 153 °C.

With `O=C(NCCO)c1cnc(C(=O)NCCO)s1`, the melting point was in the range of 182 to 184 °C.

`O=C(O)c1cccc(NC(=O)N2CCc3cc(S(=O)(=O)N4CCN(c5cccc(Cl)c5)CC4)ccc32)c1`: the melting point is 250 °C.

`CCC(=O)NS(=O)(=O)c1cccc(-c2cccc(-c3cc(-c4ccc(C(F)(F)F)cc4)cc(C)n3)n2)c1` displayed a melting point of 173 °C.

`CN(C)CNS(=O)(=O)c1ccc(-c2cnn(Cc3ccc(F)cc3F)c(=O)c2-c2ccc(F)cc2)cc1` gave a melting point of 193 to 195 °C.

Turning to `Cc1c(C(O)C2CCc3cc4ccccc4n3C2=O)ncn1C(c1ccccc1)(c1ccccc1)c1ccccc1` (centres undefined), the melting point lay within 85 to 90 °C.

As to `COc1ccc(C(=O)Nc2ccc(F)c(F)c2)cc1NCc1cccs1`, the melting point was 172 to 174 °C.

Regarding `COc1cc2c(O)nc(-c3ccc(Cl)cc3)nc2c(OC)c1OC`, the melting point came to 289 °C.

In the case of `O=C1Nc2ccc(-c3cccc(Cl)c3)cc2C2(CCCCC2)O1`, the melting point fell in the range of 165 to 168 °C.

Turning to `NC1CCN(c2nc3c(cc2F)c(=O)c(C(=O)O)cn3CCF)C1` (centres undefined), the melting point is 251 to 255 °C.

The compound `CC1=C(C(=O)OCCO)C(c2ccccc2OCc2ccccc2)C([N+](=O)[O-])=C(C)N1` (centres undefined) came in with a melting point of 183 to 185 °C.

Compound `O=C(O)Cc1ccc(SCCNC(=O)C2Cc3ccccc3N2S(=O)(=O)c2ccc(-c3ccccc3C(F)(F)F)cc2)c(Cl)c1` (centres undefined) registered a melting point of 86 °C.

The compound `CC[C@@]12CC(=O)[C@](O)(c3ccccc3)C[C@H]1CCc1cc(O)ccc12` displayed a melting point of 97 to 98 °C.

Compound `O=[N+]([O-])c1cccc(O)c1Cl` registered a melting point of 130 °C.

As for `CC(C)(CCl)C(OC(=O)C(Cl)Cl)C(Oc1ccc(Cl)cc1)n1ccnc1` (centres undefined), the melting point fell in the range of 108 to 110 °C.

Compound `COc1ccc(-n2c(Cl)ccc2-c2ccc(S(N)(=O)=O)cc2)cc1` showed a melting point of 119 to 120 °C.

With `COc1cc(O)cc(OC)c1/C=C/S(=O)(=O)CS(=O)(=O)/C=C/c1c(OC)cc(O)cc1OC`, the melting point is 148 to 150 °C.

Compound `CC(C)(C(N)=O)c1ccc(OCc2ccccc2)cc1` registered a melting point of 150 to 151 °C.

Turning to `Nc1nc(N)c(CCCCc2ccc(C(=O)N[C@@H](CCC(=O)O)C(=O)O)cc2)c(O)n1`, the melting point was 169 to 171 °C.

As for `COc1cc(OC)c(N2CCCC2)cc1/C=C/C(=O)c1ccc(S(=O)(=O)Nc2cc(C)on2)cc1`, the melting point was in the range of 164 to 165 °C.

Turning to `CC(C)(C)OC(=O)NC[C@H](O)[C@@H](O)[C@H](O)[C@H](O)CO`, the melting point was in the range of 81 to 83 °C.

Consider `Oc1ccc2nc(-n3ccnc3)nc(NCc3ccccc3)c2c1`, for which the melting point is 230 °C.

Turning to `CCOc1ccccc1C1CN=C(NC(=O)OC)N1C` (centres undefined), the melting point is 137 to 138 °C.

Turning to `CC(=O)Nc1ccc(NC2CCN3CCc4ccccc4C3C2)cc1` (centres undefined), the melting point fell in the range of 210 to 213 °C.

Compound `CN(Cc1cccnc1)C(=N)NC#N` came in with a melting point of 141 to 143 °C.

For the compound `NC(=S)Nc1cc(-c2ccccc2)nn1-c1ccccc1`, the melting point lay in the range of 198 to 201 °C.

Regarding `COC(=O)c1cc(Oc2ccc(Cl)c(C)c2)ccc1[N+](=O)[O-]`, the melting point is 85 to 87 °C.

As to `O=C(NC1CCc2c[nH]cc2C1)[C@@H]1CCCN1C(=O)[C@@H](CC1CCCCC1)NS(=O)(=O)Cc1ccccc1` (some centres undefined), the melting point lay within 106 to 109 °C.

`CCCC(=O)c1ccc(=O)[nH]c1C`: the melting point fell in the range of 167 to 168 °C.

`N#Cc1cc(-c2ccnc(Nc3cccc(Cl)c3)n2)ccn1`: the melting point lay in the range of 221 to 222 °C.

`COCCN(CCOC)Cc1ccc(NC(=O)C2=Cc3cc(-c4ccc(C)cc4)ccc3OCC2)cc1` returned a melting point of 110 to 112 °C.

With `Nc1nc2ccccc2c2c1nc(-c1ccccc1)n2CCCCNC(=O)c1cccnc1`, the melting point is 84.5 to 86.1 °C.

`N#CC(C#N)=C(NCCCN1CCCCC1)NCCCN1CCCCC1`: the melting point fell in the range of 110 to 112 °C.

Consider `Cc1c(NC(=O)c2ccc(-c3ccccc3F)cc2F)ccc2cc(CN3CCCC3)cnc12`, for which the melting point was 159 to 160 °C.

In turn, `CC(C)(C)N(Cc1ccccc1)C(=O)C=c1sc2n(c1=O)Cc1ccccc1N=2` registered a melting point of 195 to 197 °C.

As to `COc1ccccc1-c1c(C2CCN(C)CC2)[nH]c(=O)c2ccccc12`, the melting point fell in the range of 153 to 155 °C.

With `Cc1cc(C)cc(-c2nc(N)sc2-c2ccnc(OCc3ccccc3)c2)c1`, the melting point is 141 to 143 °C.

In turn, `CCOC(=O)COc1cccc2c1OCC2=O` displayed a melting point of 89 to 90 °C.

In the case of `CC(=NNc1ccc(C(F)(F)F)cc1)C(=O)NCc1ccc(Cl)nc1`, the melting point turned out to be 184 °C.

`CCC1(C)NC(=O)C(CCSC)O1` (centres undefined) came in with a melting point of 62 °C.

On to `O=c1ccoc(C(OC2CCCCO2)c2ccccc2)c1OCc1ccccc1` (centres undefined), for which the melting point was in the range of 115 to 116 °C.
